Data: US20240209028A1, “CNP COMPOUNDS” (priority 2022, published 2024)
Like-named read-outs stand apart in the source and are kept apart here. Starred links: 1 amine or outer side, 2 acyl side, 3 side chain; linkers in the order of their positions; H or OH if unused. Positions of bridges follow the written chain, without caps; N, C: chain ends. Residues, ends and D or L forms follow the SMILES beside them. *: point of attachment. C18 diacid = O=C(O)CCCCCCCCCCCCCCCCC(=O)*; γGlu = O=C(O)[C@H](CCC(=O)[*:2])N[*:1]; AEEA = NCCOCCOCC(=O)O

What was measured:
[1] = Thioflavin T (ThT) assay: lagtime and peptide recovery; format: physicochemical; settings: assay terminated after 45 hours; for LagTime (h) at pH 6.5: ThT assay, pH 6.5, 37° C.
In short: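 ThT (final about 1 μM) was added to peptide supernatants at pH 4.0 and 6.5 and incubated at 37 °C with orbital shaking for 45 h. Fluorescence (ex 444/em 485 nm) was read every 20 min, and lag-time was taken as the time to onset of signal rise. Recovery is the RP-UPLC (215 nm) total peak area after vs. before incubation.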

[2] = PK of CNP compounds after i.v. and s.c. administration to rats; settings: male, Sprague Dawley, in vivo, rat; for clearance: read-out: Cl (L/hr/kg), i.v. administration (converted); for bioavailability: s.c. bioavailability, read-out: F (%), s.c. administration
In short: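 Plasma exposure was quantified by protein precipitation and turboflow LC-MS/MS in SRM mode. Rats received either 100 nmol/kg intravenously or 300 nmol/kg subcutaneously, with sublingual blood taken at baseline and at points up to 72 h. Per-animal NCA gave clearance as Dose/AUCinf, and results are averaged over 4-6 animals.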

[3] = iv, i.v., about 100 nmol/kg, read-out: T½ (hr), i.v. administration (converted)
[4] = sc, s.c., about 300 nmol/kg, read-out: T½ (hr), s.c. administration (converted)

Row | SMILES | LagTime (h) at pH 6.5 [1] [h] | clearance ([2]; iv, i.v., about 100 nmol/kg) [L/h/kg] | half-life [2, 3] [h] | bioavailability ([2]; sc, about 300 nmol/kg) [%] | half-life [2, 4] [h] | LagTime (h) at pH 4.0 ([1]; ThT, 37° C., shaking) [h]
1 | CC[C@H](C)[C@@H]1NC(=O)[C@H](CCCNC(=N)N)NC(=O)[C@H](CC(=O)O)NC(=O)[C@H](CC(C)C)NC(=O)[C@@H]2CCCN2C(=O)[C@H](CC(C)C)NC(=O)CNC(=O)[C@H](Cc2ccccc2)NC(=O)[C@@H](NC(=O)CNC(=O)[C@H](CCC(N)=O)NC(=O)[C@H](CO)NC(=O)CNC(=O)CNC(=O)[C@H](CCCCN)NC(=O)[C@H](CCCCN)NC(=O)[C@H](CCC(N)=O)NC(=O)[C@H](C)NC(=O)CNC(=O)[C@H](Cc2c[nH]cn2)NC(=O)[C@H](Cc2ccc(O)cc2)NC(=O)COCCOCCNC(=O)COCCOCCNC(=O)COCCOCCNC(=O)COCCOCCNC(=O)CC[C@H](NC(=O)CC[C@H](NC(=O)CCCCCCCCCCCCCCCCC(=O)O)C(=O)O)C(=O)O)CSSC[C@@H](C(=O)O)NC(=O)CNC(=O)[C@H](CC(C)C)NC(=O)CNC(=O)[C@H](CO)NC(=O)[C@H](CC(C)C)NC(=O)[C@H](CO)NC(=O)CNC1=O [compound 1434] ({C18 diacid-γGlu-γGlu-AEEA-AEEA-AEEA-AEEA}-YHGAQKKGGSQGCFGLPLDRIGSLSGLGC-OH; disulfide 13-29) | 45 | 0.00764 | 8.34 |  |  | 
2 | CC[C@H](C)[C@@H]1NC(=O)[C@H](CCCNC(=N)N)NC(=O)[C@H](CC(=O)O)NC(=O)[C@H](CC(C)C)NC(=O)[C@@H]2CCCN2C(=O)[C@H](CC(C)C)NC(=O)CNC(=O)[C@H](Cc2ccccc2)NC(=O)[C@@H](NC(=O)CNC(=O)[C@H](CCC(N)=O)NC(=O)[C@H](CO)NC(=O)[C@H](CO)NC(=O)CNC(=O)[C@H](CCCCN)NC(=O)[C@H](CCCCN)NC(=O)[C@H](CCC(N)=O)NC(=O)[C@H](C)NC(=O)CNC(=O)[C@@H]2CCCN2C(=O)[C@H](C)NC(=O)[C@H](CCC(N)=O)NC(=O)CNC(=O)COCCOCCNC(=O)COCCOCCNC(=O)CC[C@H](NC(=O)CCCCCCCCCCCCCCCCC(=O)O)C(=O)O)CSSC[C@@H](C(=O)O)NC(=O)CNC(=O)[C@H](CC(C)C)NC(=O)CNC(=O)[C@H](CO)NC(=O)[C@H](CC(C)C)NC(=O)[C@H](CO)NC(=O)CNC1=O [compound 9384] ({C18 diacid-γGlu-AEEA-AEEA}-GQAPGAQKKGSSQGCFGLPLDRIGSLSGLGC-OH; disulfide 15-31; C-terminus assumed) | 45 | 0.00493 | 9.15 | 49.7 | 9.47 | 
3 | CC[C@H](C)[C@@H]1NC(=O)[C@H](CCCNC(=N)N)NC(=O)[C@H](CC(=O)O)NC(=O)[C@H](CC(C)C)NC(=O)[C@@H]2CCCN2C(=O)[C@H](CC(C)C)NC(=O)CNC(=O)[C@H](Cc2ccccc2)NC(=O)[C@@H](NC(=O)CNC(=O)[C@H](CCC(N)=O)NC(=O)[C@H](CO)NC(=O)[C@H](CC(C)C)NC(=O)CNC(=O)[C@H](CCCCN)NC(=O)[C@H](CCCCN)NC(=O)[C@H](CCC(N)=O)NC(=O)[C@H](C)NC(=O)CNC(=O)[C@H](CCCCN)NC(=O)[C@H](Cc2ccc(O)cc2)NC(=O)[C@H](CCCCN)NC(=O)[C@H](CCCNC(=N)N)NC(=O)[C@H](C)NC(=O)COCCOCCNC(=O)COCCOCCNC(=O)COCCOCCNC(=O)COCCOCCNC(=O)CC[C@H](NC(=O)CC[C@H](NC(=O)CC[C@H](NC(=O)CC[C@H](NC(=O)CC[C@H](NC(=O)CCCCCCCCCCCCCCCCC(=O)O)C(=O)O)C(=O)O)C(=O)O)C(=O)O)C(=O)O)CSSC[C@@H](C(=O)O)NC(=O)CNC(=O)[C@H](CC(C)C)NC(=O)CNC(=O)[C@H](CO)NC(=O)[C@H](CC(C)C)NC(=O)[C@H](CO)NC(=O)CNC1=O [compound 9407] ({C18 diacid-γGlu-γGlu-γGlu-γGlu-γGlu-AEEA-AEEA-AEEA-AEEA}-ARKYKGAQKKGLSQGCFGLPLDRIGSLSGLGC-OH; disulfide 16-32) | 45 | 0.00515 | 15.2 | 37.2 | 14.9 | 
4 | CC[C@H](C)[C@@H]1NC(=O)[C@H](CCCNC(=N)N)NC(=O)[C@H](CC(=O)O)NC(=O)[C@H](CC(C)C)NC(=O)[C@@H]2CCCN2C(=O)[C@H](CC(C)C)NC(=O)CNC(=O)[C@H](Cc2ccccc2)NC(=O)[C@@H](NC(=O)CNC(=O)[C@H](CCC(N)=O)NC(=O)[C@H](CO)NC(=O)CNC(=O)CNC(=O)[C@H](CCCCN)NC(=O)[C@H](CCCCN)NC(=O)[C@H](CCC(N)=O)NC(=O)[C@H](C)NC(=O)CNC(=O)[C@H](CCCCN)NC(=O)[C@H](Cc2ccc(O)cc2)NC(=O)COCCOCCNC(=O)COCCOCCNC(=O)COCCOCCNC(=O)COCCOCCNC(=O)CC[C@H](NC(=O)CC[C@H](NC(=O)CCCCCCCCCCCCCCCCC(=O)O)C(=O)O)C(=O)O)CSSC[C@@H](C(=O)O)NC(=O)CNC(=O)[C@H](CC(C)C)NC(=O)CNC(=O)[C@H](CO)NC(=O)[C@H](CC(C)C)NC(=O)[C@H](CO)NC(=O)CNC1=O [compound 9435] ({C18 diacid-γGlu-γGlu-AEEA-AEEA-AEEA-AEEA}-YKGAQKKGGSQGCFGLPLDRIGSLSGLGC-OH; disulfide 13-29; C-terminus assumed) | 45 | 0.00458 | 10.4 |  |  | 45
5 | CC[C@H](C)[C@@H]1NC(=O)[C@H](CCCNC(=N)N)NC(=O)[C@H](CC(=O)O)NC(=O)[C@H](CC(C)C)NC(=O)[C@@H]2CCCN2C(=O)[C@H](CC(C)C)NC(=O)CNC(=O)[C@H](Cc2ccccc2)NC(=O)[C@@H](NC(=O)CNC(=O)[C@H](CO)NC(=O)[C@H](CO)NC(=O)[C@H](CC(C)C)NC(=O)CNC(=O)[C@H](CCCCN)NC(=O)[C@H](CCCCN)NC(=O)[C@H](CCC(N)=O)NC(=O)[C@H](C)NC(=O)CNC(=O)[C@H](CCCCN)NC(=O)[C@H](Cc2ccc(O)cc2)NC(=O)[C@H](CCCCN)NC(=O)[C@H](CCCNC(=N)N)NC(=O)[C@H](C)NC(=O)[C@H](CCC(N)=O)NC(=O)[C@@H]2CCCN2C(=O)[C@H](Cc2c[nH]cn2)NC(=O)[C@H](CCC(=O)O)NC(=O)[C@H](CCC(N)=O)NC(=O)CC[C@H](NC(=O)CC[C@H](NC(=O)CC[C@H](NC(=O)CC[C@H](NC(=O)CC[C@H](NC(=O)CCCCCCCCCCCCCCCCC(=O)O)C(=O)O)C(=O)O)C(=O)O)C(=O)O)C(=O)O)CSSC[C@@H](C(=O)O)NC(=O)CNC(=O)[C@H](CC(C)C)NC(=O)CNC(=O)[C@H](CO)NC(=O)[C@H](CC(C)C)NC(=O)[C@H](CO)NC(=O)CNC1=O [compound 9482] ({C18 diacid-γGlu-γGlu-γGlu-γGlu-γGlu}-QEHPQARKYKGAQKKGLSSGCFGLPLDRIGSLSGLGC-OH; disulfide 21-37) | 45 | 0.00549 | 14.5 | 71.5 | 18.6 | 
